Where a name gives a salt, the structure may show the parent alone. Read-outs that look alike come from different tables or passages of the source.
Tests used:
Assay in all cases: AK assay 384-well format, Prestwick library screening
[1] = tested on: S. aureus strain USA300-0114; type: cell-based, Staphylococcus aureus; conditions: 50 μM final drug concentration; for fold induction at 50 µM: Staphylococcus aureus, USA300, 3 h; for AK-based Prestwick Library Screening Results, S. aureus (fold increase in extracellular AK activity): cutoff for positive 3-fold increase
K. pneumoniae = type: cell-based, Klebsiella pneumoniae; conditions: 50 μM final drug concentration; for fold induction at 50 µM: Klebsiella pneumoniae, 3 h; for AK-based Prestwick Library Screening Results, K. pneumoniae (fold increase in extracellular AK activity): cutoff for positive 3-fold increase
[2] = tested on: A. baumannii strain 98-37-09; type: cell-based, Acinetobacter baumannii; conditions: 50 μM final drug concentration; for fold induction at 50 µM: Acinetobacter baumannii, 983709, 3 h; for AK-based Prestwick Library Screening Results, A. baumannii (fold increase in extracellular AK activity): cutoff for positive 3-fold increase
E. coli = type: cell-based, Escherichia coli; conditions: 50 μM final drug concentration; for fold induction at 50 µM: Escherichia coli, 3 h; for AK-based Prestwick Library Screening Results, E. coli (fold increase in extracellular AK activity): cutoff for positive 3-fold increase
P. aeruginosa = type: cell-based, Pseudomonas aeruginosa; conditions: 50 μM final drug concentration; for fold induction at 50 µM: Pseudomonas aeruginosa, 3 h; for AK-based Prestwick Library Screening Results, P. aeruginosa (fold increase in extracellular AK activity): cutoff for positive 3-fold increase
E. faecium = type: cell-based, Enterococcus faecium; conditions: 50 μM final drug concentration; for fold induction at 50 µM: Enterococcus faecium, 3 h; for AK-based Prestwick Library Screening Results, E. faecium (fold increase in extracellular AK activity): cutoff for positive 3-fold increase
E. cloacae = type: cell-based, Enterobacter cloacae; conditions: 50 μM final drug concentration; for fold induction at 50 µM: Enterobacter cloacae, 3 h; for AK-based Prestwick Library Screening Results, E. cloacae (fold increase in extracellular AK activity): cutoff for positive 3-fold increase
[3] = planktonic S. aureus, positive cutoff 3-fold increase, read-out: AK-based Prestwick library screening result, S. aureus (fold increase in extracellular AK activity)
[4] = planktonic K. pneumoniae, positive cutoff 3-fold increase, read-out: AK-based Prestwick library screening result, K. pneumoniae (fold increase in extracellular AK activity)
[5] = planktonic A. baumannii, positive cutoff 3-fold increase, read-out: AK-based Prestwick library screening result, A. baumannii (fold increase in extracellular AK activity)
[6] = planktonic E. coli, positive cutoff 3-fold increase, read-out: AK-based Prestwick library screening result, E. coli (fold increase in extracellular AK activity)
[7] = planktonic P. aeruginosa, positive cutoff 3-fold increase, read-out: AK-based Prestwick library screening result, P. aeruginosa (fold increase in extracellular AK activity)
[8] = planktonic E. faecium, positive cutoff 3-fold increase, read-out: AK-based Prestwick library screening result, E. faecium (fold increase in extracellular AK activity)
[9] = planktonic E. cloacae, positive cutoff 3-fold increase, read-out: AK-based Prestwick library screening result, E. cloacae (fold increase in extracellular AK activity)
[10] = planktonic S. aureus, cutoff for positive-scoring molecules 3-fold increase, read-out: AK-based Prestwick Library Screening Results, S. aureus (increase in extracellular AK activity)
[11] = planktonic K. pneumoniae, cutoff for positive-scoring molecules 3-fold increase, read-out: AK-based Prestwick Library Screening Results, K. pneumoniae (increase in extracellular AK activity)
[12] = planktonic A. baumannii, cutoff for positive-scoring molecules 3-fold increase, read-out: AK-based Prestwick Library Screening Results, A. baumannii (increase in extracellular AK activity)
[13] = planktonic E. coli, cutoff for positive-scoring molecules 3-fold increase, read-out: AK-based Prestwick Library Screening Results, E. coli (increase in extracellular AK activity)
[14] = planktonic P. aeruginosa, cutoff for positive-scoring molecules 3-fold increase, read-out: AK-based Prestwick Library Screening Results, P. aeruginosa (increase in extracellular AK activity)
[15] = planktonic E. faecium, cutoff for positive-scoring molecules 3-fold increase, read-out: AK-based Prestwick Library Screening Results, E. faecium (increase in extracellular AK activity)
[16] = planktonic E. cloacae, cutoff for positive-scoring molecules 3-fold increase, read-out: AK-based Prestwick Library Screening Results, E. cloacae (increase in extracellular AK activity)

Nc1ccc(S(=O)(=O)Nc2ccccn2)cc1 [Sulfapyridine]
fold induction at 50 µM ([1]; planktonic, […], read-out: AK-based Prestwick Library Screening Results, S. aureus (fold increase in extracellular AK activity)): 1.4 | fold induction at 50 µM (K. pneumoniae; planktonic, […], read-out: AK-based Prestwick Library Screening Results, K. pneumoniae (fold increase in extracellular AK activity)): 0.9 | fold induction at 50 µM ([2]; planktonic, […], read-out: AK-based Prestwick Library Screening Results, A. baumannii (fold increase in extracellular AK activity)): 2.2 | fold induction at 50 µM (E. coli; planktonic, […], read-out: AK-based Prestwick Library Screening Results, E. coli (fold increase in extracellular AK activity)): 1.2 | fold induction at 50 µM (P. aeruginosa; planktonic, […], read-out: AK-based Prestwick Library Screening Results, P. aeruginosa (fold increase in extracellular AK activity)): 1.1 | fold induction at 50 µM (E. faecium; planktonic, […], read-out: AK-based Prestwick Library Screening Results, E. faecium (fold increase in extracellular AK activity)): 1 | fold induction at 50 µM (E. cloacae; planktonic, […], read-out: AK-based Prestwick Library Screening Results, E. cloacae (fold increase in extracellular AK activity)): 1.6

Cc1cccc(C)c1NC(=O)C(C)N (stereo not shown) [Tocainide hydrochloride]
fold induction at 50 µM [1, 3]: 1.1 | fold induction at 50 µM (K. pneumoniae; [4]): 1.1 | fold induction at 50 µM [2, 5]: 1.6 | fold induction at 50 µM (E. coli; [6]): 1.2 | fold induction at 50 µM (P. aeruginosa; [7]): 1.1 | fold induction at 50 µM (E. faecium; [8]): 1 | fold induction at 50 µM (E. cloacae; [9]): 1.4

CC(C)(C)C(=O)OCOC(=O)[C@@H]1N2C(=O)[C@@H](/N=C/N3CCCCCC3)[C@H]2SC1(C)C [Pivmecillinam hydrochloride]
fold induction at 50 µM ([1]; cutoff for positive-scoring molecules 3-fold increase, read-out: AK-based Prestwick Library Screening Results, S. aureus (fold increase in extracellular AK activity)): 0.6 | fold induction at 50 µM (K. pneumoniae; cutoff for positive-scoring molecules 3-fold increase, read-out: AK-based Prestwick Library Screening Results, K. pneumoniae (fold increase in extracellular AK activity)): 0.5 | fold induction at 50 µM ([2]; cutoff for positive-scoring molecules 3-fold increase, read-out: AK-based Prestwick Library Screening Results, A. baumannii (fold increase in extracellular AK activity)): 1.1 | fold induction at 50 µM (E. coli; cutoff for positive-scoring molecules 3-fold increase, read-out: AK-based Prestwick Library Screening Results, E. coli (fold increase in extracellular AK activity)): 7.7 | fold induction at 50 µM (P. aeruginosa; cutoff for positive-scoring molecules 3-fold increase, read-out: AK-based Prestwick Library Screening Results, P. aeruginosa (fold increase in extracellular AK activity)): 0.6 | fold induction at 50 µM (E. faecium; cutoff for positive-scoring molecules 3-fold increase, read-out: AK-based Prestwick Library Screening Results, E. faecium (fold increase in extracellular AK activity)): 0.9 | fold induction at 50 µM (E. cloacae; cutoff for positive-scoring molecules 3-fold increase, read-out: AK-based Prestwick Library Screening Results, E. cloacae (fold increase in extracellular AK activity)): 0.8

CC(=O)NC1[C@@H](O)OC(CO)[C@@H](O)[C@H]1O[C@H](C)C(=O)O (stereo in doubt) [Muramic acid, N-acetyl]
AK-based Prestwick Library Screening Results, S. aureus (fold increase in extracellular AK activity) ([1]; planktonic): 1.0 | AK-based Prestwick Library Screening Results, K. pneumoniae (fold increase in extracellular AK activity) (K. pneumoniae; planktonic): 1.0 | AK-based Prestwick Library Screening Results, A. baumannii (fold increase in extracellular AK activity) ([2]; planktonic): 1.5 | AK-based Prestwick Library Screening Results, E. coli (fold increase in extracellular AK activity) (E. coli; planktonic): 1.1 | AK-based Prestwick Library Screening Results, P. aeruginosa (fold increase in extracellular AK activity) (P. aeruginosa; planktonic): 1.1 | AK-based Prestwick Library Screening Results, E. faecium (fold increase in extracellular AK activity) (E. faecium; planktonic): 1.0 | AK-based Prestwick Library Screening Results, E. cloacae (fold increase in extracellular AK activity) (E. cloacae; planktonic): 1.4

O=C(NCCN1CCOCC1)c1ccc(Cl)cc1 [Moclobemide]
fold induction at 50 µM [1, 10]: 0.6 | fold induction at 50 µM (K. pneumoniae; [11]): 0.6 | fold induction at 50 µM [2, 12]: 0.7 | fold induction at 50 µM (E. coli; [13]): 0.9 | fold induction at 50 µM (P. aeruginosa; [14]): 0.8 | fold induction at 50 µM (E. faecium; [15]): 0.9 | fold induction at 50 µM (E. cloacae; [16]): 1.2

C[N+]1(C)CCC[C@H]1C(=O)[O-].Cl [Stachydrine hydrochloride]
AK-based Prestwick Library Screening Results, S. aureus (fold increase in extracellular AK activity) ([1]; planktonic): 1.0 | AK-based Prestwick Library Screening Results, K. pneumoniae (fold increase in extracellular AK activity) (K. pneumoniae; planktonic): 1.1 | AK-based Prestwick Library Screening Results, A. baumannii (fold increase in extracellular AK activity) ([2]; planktonic): 1.4 | AK-based Prestwick Library Screening Results, E. coli (fold increase in extracellular AK activity) (E. coli; planktonic): 1.4 | AK-based Prestwick Library Screening Results, P. aeruginosa (fold increase in extracellular AK activity) (P. aeruginosa; planktonic): 1.2 | AK-based Prestwick Library Screening Results, E. faecium (fold increase in extracellular AK activity) (E. faecium; planktonic): 1.0 | AK-based Prestwick Library Screening Results, E. cloacae (fold increase in extracellular AK activity) (E. cloacae; planktonic): 1.5

O=C(Nc1ccccc1)OCC(CN1CCCCC1)OC(=O)Nc1ccccc1 (stereo not shown) [Diperodon hydrochloride]
fold induction at 50 µM ([1]; planktonic S. aureus, 384-well, cutoff for positive-scoring molecules 3-fold increase, read-out: AK-based Prestwick Library Screening Results: S. aureus (increase in extracellular AK activity)): 1.2 | fold induction at 50 µM (K. pneumoniae; planktonic K. pneumoniae, 384-well, cutoff for positive-scoring molecules 3-fold increase, read-out: AK-based Prestwick Library Screening Results: K. pneumoniae (increase in extracellular AK activity)): 0.9 | fold induction at 50 µM ([2]; planktonic A. baumannii, 384-well, cutoff for positive-scoring molecules 3-fold increase, read-out: AK-based Prestwick Library Screening Results: A. baumannii (increase in extracellular AK activity)): 1.1 | fold induction at 50 µM (E. coli; planktonic E. coli, 384-well, cutoff for positive-scoring molecules 3-fold increase, read-out: AK-based Prestwick Library Screening Results: E. coli (increase in extracellular AK activity)): 1.4 | fold induction at 50 µM (P. aeruginosa; planktonic P. aeruginosa, 384-well, cutoff for positive-scoring molecules 3-fold increase, read-out: AK-based Prestwick Library Screening Results: P. aeruginosa (increase in extracellular AK activity)): 1.1 | fold induction at 50 µM (E. faecium; planktonic E. faecium, 384-well, cutoff for positive-scoring molecules 3-fold increase, read-out: AK-based Prestwick Library Screening Results: E. faecium (increase in extracellular AK activity)): 1.1 | fold induction at 50 µM (E. cloacae; planktonic E. cloacae, 384-well, cutoff for positive-scoring molecules 3-fold increase, read-out: AK-based Prestwick Library Screening Results: E. cloacae (increase in extracellular AK activity)): 1.4

CC(C)(Oc1ccc(C2CC2(Cl)Cl)cc1)C(=O)O (stereo not shown) [Ciprofibrate]
fold induction at 50 µM [1, 3]: 0.7 | fold induction at 50 µM (K. pneumoniae; [4]): 0.8 | fold induction at 50 µM [2, 5]: 0.8 | fold induction at 50 µM (E. coli; [6]): 0.8 | fold induction at 50 µM (P. aeruginosa; [7]): 0.7 | fold induction at 50 µM (E. faecium; [8]): 0.9 | fold induction at 50 µM (E. cloacae; [9]): 1.2

CC(CCc1ccc(O)cc1)NCCc1ccc(O)c(O)c1 (stereo not shown) [Dobutamine hydrochloride]
fold induction at 50 µM [1, 10]: 0.1 | fold induction at 50 µM (K. pneumoniae; [11]): 0.8 | fold induction at 50 µM [2, 12]: 0.7 | fold induction at 50 µM (E. coli; [13]): 0.8 | fold induction at 50 µM (P. aeruginosa; [14]): 0.6 | fold induction at 50 µM (E. faecium; [15]): 0.8 | fold induction at 50 µM (E. cloacae; [16]): 1.1

NCC1(CC(=O)O)CCCCC1 [Gabapentin]
fold induction at 50 µM ([1]; […], read-out: AK-based Prestwick Library Screening Results, S. aureus (fold increase in extracellular AK activity)): 1.5 | fold induction at 50 µM (K. pneumoniae; […], read-out: AK-based Prestwick Library Screening Results, K. pneumoniae (fold increase in extracellular AK activity)): 1.1 | fold induction at 50 µM ([2]; […], read-out: AK-based Prestwick Library Screening Results, A. baumannii (fold increase in extracellular AK activity)): 1.4 | fold induction at 50 µM (E. coli; […], read-out: AK-based Prestwick Library Screening Results, E. coli (fold increase in extracellular AK activity)): 1.4 | fold induction at 50 µM (P. aeruginosa; […], read-out: AK-based Prestwick Library Screening Results, P. aeruginosa (fold increase in extracellular AK activity)): 1.3 | fold induction at 50 µM (E. faecium; […], read-out: AK-based Prestwick Library Screening Results, E. faecium (fold increase in extracellular AK activity)): 1 | fold induction at 50 µM (E. cloacae; […], read-out: AK-based Prestwick Library Screening Results, E. cloacae (fold increase in extracellular AK activity)): 1.6
